# How the values were obtained:
# [1] = Lipophilicity, log P of the compound by HPLC analysis; assay type: physicochemical
# [2] = target: hERG (KCNH2) (Homo sapiens, UniProt Q12809); experiment: Inhibition of human ERG at 10 uM by patch clamp assay
# [3] = organism: Homo sapiens; experiment: Selectivity ratio, ratio of muscarinic M1 receptor (unknown origin) to human MCH-R1
# [4] = Half life in rat liver microsomes; assay type: ADME
# [5] = tested on: U-937; experiment: Toxicity in human U937 cells assessed as first effect concentration for phospholipidosis by nile red uptake assay; assay type: cell-based
# [6] = organism: Homo sapiens; experiment: Selectivity ratio, ratio of 5HT2A receptor (unknown origin) to human MCH-R1
# [7] = Intrinsic clearance in human hepatocytes assessed per 10^6 cells; assay type: ADME, cell-based, Hepatocyte; conditions: read-out: CLH
# [8] = tested on: Rattus norvegicus; experiment: Antiobesity activity in diet-induced obese Wistar rat model assessed as reduction of body weight at 5 mg/kg, po qd after 4 weeks; assay type: functional; set-up: scale not given: the % may be the effect or the level left
# [9] = Aqueous solubility of the compound at pH 4.5; assay type: physicochemical
# [10] = Total mean residence time in iv dosed rat; assay type: ADME, organism-based; conditions: in vivo
# [11] = Total mean residence time in iv dosed dog; assay type: ADME, organism-based, Canis lupus familiaris; conditions: in vivo
# [12] = tested on: Rattus norvegicus; experiment: Antiobesity activity in diet-induced obese Wistar rat model assessed as reduction of body weight at 6 mg/kg, po bid after 4 weeks; assay type: functional; set-up: scale not given: the % may be the effect or the level left
# [13] = target: T1, Nuclear receptor subfamily 1 group I member 2 (Homo sapiens, UniProt O75469); experiment: Activation of PXR (unknown origin) at 10 uM relative to rifampicin; assay type: ADME
# T1 sequence (O75469 whole entry): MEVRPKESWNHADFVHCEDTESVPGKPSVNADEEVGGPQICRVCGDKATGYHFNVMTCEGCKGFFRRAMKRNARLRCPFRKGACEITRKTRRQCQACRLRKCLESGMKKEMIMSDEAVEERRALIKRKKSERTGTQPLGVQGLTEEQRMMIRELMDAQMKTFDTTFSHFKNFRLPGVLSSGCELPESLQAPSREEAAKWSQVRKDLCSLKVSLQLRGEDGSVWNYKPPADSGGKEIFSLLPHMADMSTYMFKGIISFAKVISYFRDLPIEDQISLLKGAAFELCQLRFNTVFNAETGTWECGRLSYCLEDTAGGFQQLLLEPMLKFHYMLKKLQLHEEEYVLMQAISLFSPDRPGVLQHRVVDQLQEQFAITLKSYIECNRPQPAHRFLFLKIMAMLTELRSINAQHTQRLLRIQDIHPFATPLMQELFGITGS
# [14] = tested on: U-937; experiment: Cytotoxicity against human U937 cells; assay type: cell-based
# [15] = target: CYP3A4 (Homo sapiens, UniProt P08684); experiment: Time dependent inhibition of CYP3A4 (unknown origin) at 25 uM after 30 mins; assay type: ADME
# [16] = target: Histamine H3 receptor (Homo sapiens) (UniProt Q9Y5N1); experiment: Binding affinity to histamine H3 receptor (unknown origin) at 10 uM by radioligand binding assay
# [17] = Mean residence time in iv dosed dog; assay type: ADME, organism-based, Canis lupus familiaris; conditions: in vivo
# [18] = target: T2, Melanin-concentrating hormone receptor 1 (Homo sapiens, UniProt Q99705); experiment: Binding affinity to human MCH-R1 expressed in CHO/Galpha16 cells; assay type: cell-based
# [19] = Distribution coefficient, log D of the compound; assay type: physicochemical; conditions: octanol/water
# [20] = Binding affinity to dog MCH-R1; set-up: species or system Canis lupus familiaris
# [21] = tested on: Cynomolgus monkey; experiment: Cardiotoxicity in conscious cynomolgus monkey assessed as left ventricular pressure at 3 to 30 mg/kg, po; assay type: toxicity, organism-based, Macaca fascicularis, Heart left ventricle; conditions: in vivo
# [22] = tested on: Cynomolgus monkey; experiment: Clearance in cynomolgus monkey relative to hepatic blood flow; assay type: ADME, organism-based, Macaca fascicularis, Liver; conditions: in vivo
# [23] = tested on: Rattus norvegicus; experiment: Antiobesity activity in diet-induced obese Wistar rat model assessed as reduction of body weight at 3 mg/kg, po bid after 4 weeks; assay type: functional; set-up: scale not given: the % may be the effect or the level left
# [24] = Plasma protein binding in dog; assay type: ADME, cell-free, Canis lupus familiaris; conditions: read-out: PPB (converted)
# [25] = Aqueous solubility of the compound at pH 2.2; assay type: physicochemical
# [26] = Volume of distribution at steady state in dog; assay type: ADME, organism-based, Canis lupus familiaris; conditions: in vivo, read-out: Vdss
# [27] = target: Cytochrome P450 2C9 (Homo sapiens, UniProt P11712); experiment: Inhibition of CYP2C9 (unknown origin); assay type: ADME
# [28] = Metabolic stability in rat hepatocytes relative to hepatic blood flow; assay type: ADME, cell-based, Hepatocyte; conditions: read-out: Stability
# [29] = target: Voltage-gated inwardly rectifying potassium channel KCNH2 (Homo sapiens, UniProt Q12809); experiment: Inhibition of human ERG by patch clamp assay
# [30] = Aqueous solubility of the compound at pH 6.8; assay type: physicochemical
# [31] = tested on: Rattus norvegicus; experiment: Toxicity in diet-induced obese Wistar rat model at 6 to 10 mg/kg, po bid after 4 weeks; assay type: organism-based; conditions: in vivo, 672 h
# [32] = target: Melanin-concentrating hormone receptor 1 (Rattus norvegicus, UniProt P97639); experiment: Binding affinity to rat MCH-R1
# [33] = Volume of distribution at steady state in rat; assay type: ADME, organism-based; conditions: in vivo, read-out: Vdss
# [34] = Dissociation constant, pKa of the compound; assay type: physicochemical
# [35] = Plasma protein binding in human; assay type: ADME, cell-free; conditions: read-out: PPB (converted)
# [36] = tested on: Cynomolgus monkey; experiment: Cardiotoxicity in conscious cynomolgus monkey assessed as decrease in heart rate at 30 mg/kg, po; assay type: toxicity, organism-based, Macaca fascicularis; conditions: in vivo
# [37] = organism: Rattus norvegicus; experiment: Clearance in rat relative to hepatic blood flow; assay type: ADME, organism-based, Liver; conditions: in vivo
# [38] = Efflux ratio in human Caco2 cells at 10 uM; assay type: ADME, cell-based; conditions: Caco-2
# [39] = Oral bioavailability in cynomolgus monkey; assay type: ADME, organism-based, Macaca fascicularis; conditions: in vivo
# [40] = Plasma protein binding in rat; assay type: ADME, cell-free; conditions: read-out: PPB (converted)
# [41] = Volume of distribution at steady state in cynomolgus monkey; assay type: ADME, organism-based, Macaca fascicularis; conditions: in vivo, read-out: Vdss
# [42] = target: Cytochrome P450 2D6 (Homo sapiens, UniProt P10635); experiment: Inhibition of CYP2D6 (unknown origin); assay type: ADME
# [43] = Mean residence time in iv dosed cynomolgus monkey; assay type: ADME, organism-based, Macaca fascicularis; conditions: in vivo
# [44] = Total mean residence time in iv dosed cynomolgus monkey; assay type: ADME, organism-based, Macaca fascicularis; conditions: in vivo
# [45] = organism: Canis familiaris; experiment: Clearance in dog relative to hepatic blood flow; assay type: ADME, organism-based, Canis lupus familiaris, Liver; conditions: in vivo
# [46] = tested on: Cynomolgus monkey; experiment: Cardiotoxicity in conscious cynomolgus monkey assessed as myocardial contraction at 3 to 30 mg/kg, po; assay type: toxicity, organism-based, Macaca fascicularis, Myocardium; conditions: in vivo
# [47] = Mean residence time in iv dosed rat; assay type: ADME, organism-based; conditions: in vivo
# [48] = tested on: Rattus norvegicus; experiment: Antiobesity activity in diet-induced obese Wistar rat model assessed as reduction of body weight at 10 mg/kg, po bid after 4 weeks; assay type: functional; set-up: scale not given: the % may be the effect or the level left
# [49] = Oral bioavailability in dog; assay type: ADME, organism-based, Canis lupus familiaris; conditions: in vivo
# [50] = target: Cytochrome P450 2C19 (Homo sapiens, UniProt P33261); experiment: Inhibition of CYP2C19 (unknown origin); assay type: ADME
# [51] = target: T2, Melanin-concentrating hormone receptor 1; experiment: Displacement of [125I]-MCH from human MCH-R1 expressed in CHO/Galpha16 cells after 60 mins by scintillation counting; assay type: cell-based
# [52] = Aqueous solubility of the compound at pH 7.4; assay type: physicochemical
# [53] = Metabolic stability in human hepatocytes relative to hepatic blood flow; assay type: ADME, cell-based, Hepatocyte; conditions: read-out: Stability
# [54] = tested on: U-937; experiment: Toxicity in human U937 cells assessed as phospholipidosis at 100 uM by nile red uptake assay; assay type: cell-based; conditions: u-937, 100 µM
# [55] = Plasma protein binding in cynomolgus monkey; assay type: ADME, cell-free, Macaca fascicularis; conditions: read-out: PPB (converted)
# [56] = Apparent permeability from apical to basolateral side in human Caco2 cells at 10 uM; assay type: ADME, cell-based; conditions: Caco-2
# [57] = Metabolic stability in cynomolgus monkey hepatocytes relative to hepatic blood flow; assay type: ADME, cell-based, Macaca fascicularis, Hepatocyte; conditions: read-out: Stability
# [58] = target: Cytochrome P450 3A4 (Homo sapiens, UniProt P08684); experiment: Inhibition of CYP3A4 (unknown origin); assay type: ADME
# [59] = tested on: Cynomolgus monkey; experiment: Cardiotoxicity in conscious cynomolgus monkey assessed as systolic and diastolic blood pressure at 3 to 30 mg/kg, po; assay type: toxicity, organism-based, Macaca fascicularis; conditions: in vivo
# [60] = tested on: Salmonella typhimurium; experiment: Genotoxicity in Salmonella typhimurium by Ames test; assay type: toxicity, organism-based; conditions: salmonella enterica subsp. enterica serovar typhimurium
# [61] = target: T3, Cytochrome P450 2C8 (Homo sapiens, UniProt P10632); experiment: Inhibition of CYP2C8 (unknown origin); assay type: ADME
# T3 sequence (P10632 whole entry): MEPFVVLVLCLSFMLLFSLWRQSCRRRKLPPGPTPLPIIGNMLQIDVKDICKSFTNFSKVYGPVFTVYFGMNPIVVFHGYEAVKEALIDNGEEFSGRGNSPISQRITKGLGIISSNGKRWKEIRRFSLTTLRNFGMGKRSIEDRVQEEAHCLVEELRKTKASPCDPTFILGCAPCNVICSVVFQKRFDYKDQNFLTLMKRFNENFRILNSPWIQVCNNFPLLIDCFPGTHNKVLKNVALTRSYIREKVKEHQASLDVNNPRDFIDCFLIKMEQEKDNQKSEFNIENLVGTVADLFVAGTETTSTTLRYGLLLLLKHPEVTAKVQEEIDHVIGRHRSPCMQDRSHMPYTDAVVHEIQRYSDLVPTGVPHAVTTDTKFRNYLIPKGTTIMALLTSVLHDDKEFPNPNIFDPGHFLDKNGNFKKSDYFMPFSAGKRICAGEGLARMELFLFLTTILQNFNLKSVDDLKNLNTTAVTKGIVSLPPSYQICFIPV
# [62] = Oral bioavailability in rat; assay type: ADME, organism-based; conditions: in vivo
# Sequence of hERG (KCNH2) (Q12809 whole entry): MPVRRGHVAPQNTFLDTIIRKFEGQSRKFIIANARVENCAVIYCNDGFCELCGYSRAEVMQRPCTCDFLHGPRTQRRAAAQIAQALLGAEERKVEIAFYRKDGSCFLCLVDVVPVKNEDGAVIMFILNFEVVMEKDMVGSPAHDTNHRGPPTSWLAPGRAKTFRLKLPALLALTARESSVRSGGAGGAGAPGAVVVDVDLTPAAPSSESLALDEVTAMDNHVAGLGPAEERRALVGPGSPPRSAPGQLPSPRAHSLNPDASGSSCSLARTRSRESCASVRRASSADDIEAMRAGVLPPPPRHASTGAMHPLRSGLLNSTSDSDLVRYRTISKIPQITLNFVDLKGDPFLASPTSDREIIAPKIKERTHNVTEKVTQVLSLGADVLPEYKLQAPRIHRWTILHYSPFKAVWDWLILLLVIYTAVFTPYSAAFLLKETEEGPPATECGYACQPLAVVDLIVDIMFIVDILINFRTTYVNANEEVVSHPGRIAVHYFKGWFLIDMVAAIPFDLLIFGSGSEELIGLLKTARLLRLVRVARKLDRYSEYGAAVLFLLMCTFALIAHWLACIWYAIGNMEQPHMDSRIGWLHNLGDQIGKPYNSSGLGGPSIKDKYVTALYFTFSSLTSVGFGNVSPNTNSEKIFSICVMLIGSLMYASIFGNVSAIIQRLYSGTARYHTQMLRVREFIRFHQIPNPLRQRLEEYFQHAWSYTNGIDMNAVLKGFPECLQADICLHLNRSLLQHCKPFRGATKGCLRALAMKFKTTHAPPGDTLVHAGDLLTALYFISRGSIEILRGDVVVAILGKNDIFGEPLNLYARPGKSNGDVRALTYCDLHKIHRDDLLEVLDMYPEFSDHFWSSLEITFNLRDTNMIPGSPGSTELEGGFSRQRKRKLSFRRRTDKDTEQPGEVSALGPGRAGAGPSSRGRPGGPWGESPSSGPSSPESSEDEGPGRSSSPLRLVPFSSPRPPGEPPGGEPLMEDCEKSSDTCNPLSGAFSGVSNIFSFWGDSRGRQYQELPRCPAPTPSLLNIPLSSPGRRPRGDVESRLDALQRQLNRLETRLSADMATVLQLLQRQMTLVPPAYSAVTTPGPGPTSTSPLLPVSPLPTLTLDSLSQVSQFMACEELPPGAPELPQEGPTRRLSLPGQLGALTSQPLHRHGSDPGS
# T2 sequence (Q99705 whole entry): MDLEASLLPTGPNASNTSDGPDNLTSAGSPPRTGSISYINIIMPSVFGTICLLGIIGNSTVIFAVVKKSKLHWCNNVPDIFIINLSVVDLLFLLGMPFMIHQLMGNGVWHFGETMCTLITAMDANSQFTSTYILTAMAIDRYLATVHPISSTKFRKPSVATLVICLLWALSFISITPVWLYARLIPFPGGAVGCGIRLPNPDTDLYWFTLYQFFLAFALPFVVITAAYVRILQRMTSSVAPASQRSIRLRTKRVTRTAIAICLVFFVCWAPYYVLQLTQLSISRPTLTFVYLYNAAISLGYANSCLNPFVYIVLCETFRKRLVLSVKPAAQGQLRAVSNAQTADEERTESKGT
# Sequence of Cytochrome P450 2C19 (P33261 whole entry): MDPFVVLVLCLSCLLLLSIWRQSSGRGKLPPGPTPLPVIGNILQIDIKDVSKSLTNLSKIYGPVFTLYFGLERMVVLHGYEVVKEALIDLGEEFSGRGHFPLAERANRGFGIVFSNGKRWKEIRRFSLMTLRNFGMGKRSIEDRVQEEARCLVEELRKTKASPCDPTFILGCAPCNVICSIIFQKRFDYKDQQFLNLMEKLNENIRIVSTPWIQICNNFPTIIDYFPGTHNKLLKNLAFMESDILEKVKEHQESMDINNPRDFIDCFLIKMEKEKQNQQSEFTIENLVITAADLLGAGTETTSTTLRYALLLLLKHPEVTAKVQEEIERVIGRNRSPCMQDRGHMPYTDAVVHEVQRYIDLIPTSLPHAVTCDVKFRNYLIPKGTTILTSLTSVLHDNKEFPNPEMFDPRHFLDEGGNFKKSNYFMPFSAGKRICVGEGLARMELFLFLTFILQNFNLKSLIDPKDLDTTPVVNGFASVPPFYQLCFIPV
# Sequence of Melanin-concentrating hormone receptor 1 (Rattus norvegicus, UniProt P97639) (P97639 whole entry): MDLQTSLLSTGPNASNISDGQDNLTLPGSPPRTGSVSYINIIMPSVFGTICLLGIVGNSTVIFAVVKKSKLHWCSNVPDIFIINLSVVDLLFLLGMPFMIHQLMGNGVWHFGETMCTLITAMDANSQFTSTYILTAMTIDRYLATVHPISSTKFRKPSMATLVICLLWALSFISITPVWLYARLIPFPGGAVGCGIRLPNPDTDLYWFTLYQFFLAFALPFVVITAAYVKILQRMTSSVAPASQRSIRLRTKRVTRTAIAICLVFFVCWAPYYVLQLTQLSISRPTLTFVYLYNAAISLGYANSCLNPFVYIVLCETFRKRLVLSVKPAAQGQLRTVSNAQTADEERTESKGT
# Sequence of Cytochrome P450 3A4 (P08684 whole entry): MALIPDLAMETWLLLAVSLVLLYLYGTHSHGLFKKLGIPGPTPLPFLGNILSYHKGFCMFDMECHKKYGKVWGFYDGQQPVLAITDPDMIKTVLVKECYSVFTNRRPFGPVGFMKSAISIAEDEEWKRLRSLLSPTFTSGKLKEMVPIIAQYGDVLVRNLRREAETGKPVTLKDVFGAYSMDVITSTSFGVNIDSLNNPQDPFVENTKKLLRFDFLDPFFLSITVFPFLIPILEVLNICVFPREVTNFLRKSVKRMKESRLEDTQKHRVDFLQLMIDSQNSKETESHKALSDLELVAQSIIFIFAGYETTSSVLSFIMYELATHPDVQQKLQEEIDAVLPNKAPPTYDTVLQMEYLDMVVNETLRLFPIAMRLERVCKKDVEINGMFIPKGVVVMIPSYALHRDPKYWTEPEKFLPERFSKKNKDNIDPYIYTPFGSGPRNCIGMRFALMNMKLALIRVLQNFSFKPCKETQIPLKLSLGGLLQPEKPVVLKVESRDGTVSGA
# Sequence of CYP3A4 (P08684 whole entry): as above
# Sequence of Histamine H3 receptor (Homo sapiens) (Q9Y5N1 whole entry): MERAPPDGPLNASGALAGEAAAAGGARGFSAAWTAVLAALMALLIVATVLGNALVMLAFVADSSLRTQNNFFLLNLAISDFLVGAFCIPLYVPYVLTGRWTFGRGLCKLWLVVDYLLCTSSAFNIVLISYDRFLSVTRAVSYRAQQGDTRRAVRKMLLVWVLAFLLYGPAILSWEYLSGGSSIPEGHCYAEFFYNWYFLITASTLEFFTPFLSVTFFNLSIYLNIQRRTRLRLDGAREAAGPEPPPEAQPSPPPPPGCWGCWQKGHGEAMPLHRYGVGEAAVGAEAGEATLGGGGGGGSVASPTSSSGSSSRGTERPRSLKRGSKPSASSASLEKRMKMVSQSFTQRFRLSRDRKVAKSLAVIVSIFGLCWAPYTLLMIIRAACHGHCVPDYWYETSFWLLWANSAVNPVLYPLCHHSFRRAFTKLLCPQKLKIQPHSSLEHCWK
# Sequence of Voltage-gated inwardly rectifying potassium channel KCNH2 (Q12809 whole entry): as the sequence (Q12809 whole entry) above
# Sequence of Cytochrome P450 2C9 (P11712 whole entry): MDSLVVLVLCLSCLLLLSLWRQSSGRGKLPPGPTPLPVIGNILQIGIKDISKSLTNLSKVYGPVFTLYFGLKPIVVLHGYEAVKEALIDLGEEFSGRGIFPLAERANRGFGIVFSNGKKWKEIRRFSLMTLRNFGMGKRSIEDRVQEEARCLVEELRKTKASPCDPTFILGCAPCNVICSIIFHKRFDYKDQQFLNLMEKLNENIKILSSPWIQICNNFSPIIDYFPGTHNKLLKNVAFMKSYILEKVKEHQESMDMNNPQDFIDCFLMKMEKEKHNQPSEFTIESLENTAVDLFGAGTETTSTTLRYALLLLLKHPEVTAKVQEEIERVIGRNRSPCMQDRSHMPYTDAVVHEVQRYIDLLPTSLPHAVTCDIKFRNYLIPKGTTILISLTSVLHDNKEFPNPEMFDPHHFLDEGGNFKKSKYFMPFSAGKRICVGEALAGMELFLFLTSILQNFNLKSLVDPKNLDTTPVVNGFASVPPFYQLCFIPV
smiles,measurement,setting,value
Cc1cc(CN(C)C)ccc1C(=O)Cn1ccc(OCc2ccccc2)cc1=O,logP,[1],3.3
same,inhibition at 10 µM,[2],67%
same,Ratio,[3],> 200
same,half-life,[4],24 min
same,Activity,[5],50 µM
same,Ratio,[6],> 200
same,hepatocyte CLint,[7],4 µL/min/1e6 cells
CC(C)CC(N(C)C)C1(c2ccc(Cl)cc2)CCC1 (configuration not stated) [SIBUTRAMINE],Activity,[8],10.9%
COc1ccc(COc2cnn(CC(=O)c3ccc(CN(C)C)cc3C)c(=O)c2)nc1,solubility,[9],> 1000 µg/mL
same,MRT,[10],204 min
same,MRT,[11],174 min
same,Activity,[12],10.1%
same,Activity,[13],17%
same,logP,[1],2.3
same,IC50,[14],506 µM
same,inhibition at 10 µM,[2],17%
same,"inhibition at 0.5 h, 25 µM",[15],85%
same,Activity,[16],78%
same,MRT,[17],42 min
same,Ki,[18],0.014 µM
same,logD,[19],1.4
same,IC50,[20],0.023 µM
same,Activity,[21],Non-toxic
same,CL,[22],40%
same,Activity,[23],7.7%
same,fraction unbound,[24],0.2
same,solubility,[25],> 1000 µg/mL
same,Vd,[26],2.9 L/kg
same,IC50,[27],> 50 µM
same,hepatic extraction ratio,[28],0.78
same,IC50,[29],16 µM
same,solubility,[30],> 1000 µg/mL
same,Activity,[31],Non-toxic
same,IC50,[32],0.018 µM
same,Vd,[33],3.3 L/kg
same,pKa,[34],2.8
same,half-life,[4],> 45 min
same,fraction unbound,[35],0.07
same,Activity,[5],200 µM
same,Activity,[36],Non-toxic
same,CL,[37],164%
same,efflux ratio at 10 µM,[38],1
same,bioavailability,[39],44%
same,fraction unbound,[40],0.1
same,Vd,[41],1.3 L/kg
same,IC50,[42],> 50 µM
same,MRT,[43],72 min
same,MRT,[44],132 min
same,CL,[45],229%
same,hepatocyte CLint,[7],3.3 µL/min/1e6 cells
same,Activity,[46],Non-toxic
same,MRT,[47],30 min
same,Activity,[48],10.2%
same,bioavailability,[49],1.4%
same,IC50,[50],> 50 µM
same,IC50,[51],0.022 µM
same,solubility,[52],> 1000 µg/mL
same,hepatic extraction ratio,[53],0.26
same,Activity,[54],Non-toxic
same,fraction unbound,[55],0.1
same,Papp A→B at 10 µM,[56],52 ×10⁻⁶ cm/s
same,hepatic extraction ratio,[57],0.43
same,IC50,[58],18 µM
same,Activity,[59],Non-toxic
same,Activity,[60],Non-toxic
same,IC50,[61],> 50 µM
same,bioavailability,[62],53%
CN(C)Cc1ccc(C(=O)Cn2ncc(OCc3ccc(Cl)cn3)cc2=O)cc1,logP,[1],2.9
same,inhibition at 10 µM,[2],39%
same,half-life,[4],14 min
same,Activity,[5],50 µM
same,IC50,[51],0.025 µM

# — ChEMBL document CHEMBL3600349 (Bioorg Med Chem Lett, 2015)
